This note sets out measurements from paper PMC11862990, “Utility of 6-aza-2-thiothymine in the synthesis of novel [1,2,4]triazolo[4,3-b][1,2,4]triazin-7-one derivatives: synthesis, structure elucidation, molecular docking and in vitro anti-lung cancer activity” (RSC Advances, 2025).

Where two headings read alike, the source gives them in different places.

In test [1] the test system is A549 (lung carcinoma). In words: MTT cytotoxicity assay, A549. It is filed as cell-based. The note with it: Homo sapiens; for cytotoxicity at 100 µg/mL: read-out: (%) Mortality A549; for IC50: 48 hour incubation. A general note: Formazan colour is commonly taken as a measure of viable cells.
Experimental: Using specific human cancer cell lines, the anti-proliferative effectiveness of compounds 7a–j was evaluated in an in vitro assay. The anti-cancer activity of these compounds (7a–j) on various cancer cell lines, including PC3 (Prostate cell line), A549 (Lung carcinoma), PACA2 (Pancreatic cancer cell line) and BJ1 (normal skin fibroblast), was investigated in this study using the 3-(4,5-dimethylthiazol-2-yl)-2,5-diphenyltetrazolium bromide (MTT) test. Doxorubicin (Dox) was the standard medication used as a positive control.
In the initial screening trial, a single dosage concentration of 100 μg ml^−1 was applied for 48 hours. The cytotoxicity of the treated cells was determined by calculating the cell death percentage (% mortality) as a percentage of untreated cells (Table 2).
All incubations were performed at 37 °C in a 5% CO2 incubator with a 95% humidified environment (Sheldon, TC2323; Cornelius, OR, USA). 96-well micro titer polypropylene plates were seeded with cells at a density of 10^4 cells per well in complete DMEM media, and the cells were allowed to adhere for 24 hours. After the media was aspirated, the tested compounds were added to the cells in a single dose of 100 μg ml^−1 in DMSO. Each well received 40 μl of MTT salt (2.5 g ml^−1) following a 48 hour incubation period. 200 μl of 10% sodium dodecyl sulfate (SDS) was added to each well after the reaction ended, and any formazan crystals that could have been produced were dissolved by two hours of incubator heating to 37 °C. The amount of formazan product was measured at 595 nm using a microplate reader (Bio-Rad Laboratories, model 3350, California, USA) with a reference wavelength of 690 nm, serving as a backdrop. Rather than the drugs under investigation, the medium was applied to the untreated cells (negative control). The examined compounds were dissolved in dimethylsulfoxide (DMSO), and the final concentration in the cells was less than 0.2%. For each compound and the control, the solvent concentration was the same.
Test [2] concerns p53 gene expression in lung cancer cell lines. In words: qRT-PCR gene expression, p53. Format: cell-based, human. The note with it: treated lung cancer cell line vs negative control; order 7g, Dox, 7a. As for the experimental part: The RNeasy Mini Kit (Qiagen, Hilden, Germany), augmented with a DNaseI (Qiagen) digestion step, was employed to extract total RNA from lung cancer cell lines following the manufacturer's procedure. The isolated total RNA was treated with one unit of RQ1 RNAse-free DNAse (Invitrogen, Germany) to eliminate DNA remnants, re-suspended in DEPC-treated water, and quantified photometrically at 260 nm. The purity of total RNA was evaluated using the 260/280 nm ratio, which ranged from 1.8 to 2.1.[27]
Furthermore, integrity was confirmed using ethidium bromide-stained examination of 28S and 18S bands via formaldehyde-containing agarose gel electrophoresis. Aliquots were utilized immediately for reverse transcription (RT); otherwise, they were preserved at −80 °C.
The poly(A) + RNA extracted from the lung cancer cell lines was reverse transcribed into the cDNA in a total amount of 20 μl utilizing the Revert Aid TM First Strand cDNA Synthesis Kit (Fermentas, Germany). A total of 5 μg of RNA was utilized with a master mix. The master mix comprised 50 mM MgCl2, 10× RT buffer (50 mM KCl; 10 mM Tris–HCl; pH 8.3), 10 mM of each dNTP, 50 μM oligo-dT primer, 20 IU ribonuclease inhibitor (50 kDa recombinant enzyme to suppress RNase activity), and 50 IU MuLV reverse transcriptase. Each sample mixture was centrifuged for 30 seconds at 1000 g and thereafter transferred to the thermocycler. The RT reaction was conducted at 25 °C for 10 minutes, subsequently at 42 °C for 1 hour, and concluded with a denaturation phase at 99 °C for 5 minutes. Subsequently, the reaction tubes containing RT-prepared samples were rapidly chilled in an ice chamber prior to cDNA amplification via the quantitative real-time polymerase chain reaction (qRT-PCR).
The cDNA copy number of lung cancer cell lines was determined using the StepOne™ Real-Time PCR System from Applied Biosystems (Thermo Fisher Scientific, Waltham, MA, USA). […]
The reaction protocol was divided into three stages. […] The relative quantification of the target gene to the reference gene was assessed using the 2^−ΔΔCT method.[29–31]
A general note: In qPCR the cycle at which signal appears reflects the starting amount.

Where [3] appears, read: A549, 100 μg ml^−1, 48 hours, MTT.

Usually IC50 stands for the concentration at which inhibition is half-maximal. As to `COc1ccc(-c2nn(-c3ccccc3)c3nc(=O)c(C)nn23)cc1` [Compound 7g, 3-(4-Methoxyphenyl)-6-methyl-1-phenyl-[1,2,4]triazolo[4,3-b][1,2,4]triazin-7(1H)-one], the cytotoxicity at 100 µg/mL in test [1] (setting [3]) was found to be 82.3 ± 0.82%. This compound also gave an IC50 in test [1] (A549, MTT) of 40.1 µM. Further, the “p53 (pro-apoptotic gene) expression level” value in test [2] is recorded as “elevated”.

Take `Cc1nn2c(C)nn(-c3ccc([N+](=O)[O-])cc3)c2nc1=O` [Compound 7a, 3,6-Dimethyl-1-(4-nitrophenyl)-[1,2,4]triazolo[4,3-b][1,2,4]triazin-7(1H)-one]: the cytotoxicity at 100 µg/mL in test [1] (setting [3]) is 80.4 ± 0.66%. In addition, in test [1] (A549, MTT), the IC50 is 36.6 µM. Besides, the “p53 (pro-apoptotic gene) expression level” value in test [2] is on record as “elevated”.

On to `COc1cccc2c1C(=O)c1c(O)c3c(c(O)c1C2=O)C[C@@](O)(C(=O)CO)C[C@@H]3O[C@H]1C[C@H](N)[C@H](O)[C@H](C)O1` [Dox, Doxorubicin, reference compound], for which the cytotoxicity at 100 µg/mL in test [1] (A549, 48 h) was found to be 100%. In addition, the IC50 in test [1] (A549, MTT) was 43.8 µM. Also, the “p53 (pro-apoptotic gene) expression level” value in test [2] is on record as “elevated”.
